In US20240199587A1, “HETEROCYCLIC COMPOUNDS” (Hoffmann-La Roche Inc., priority 2021, published 2024):

The molecules below were run against T1, MAGL (Homo sapiens, UniProt Q99685) (assay: 2-AG assay (MAGL inhibitory activity, hydrolysis of 2-arachidonoylglycerol to arachidonic acid followed by mass spectrometry)). Conditions: 8 μM 2-arachidonoylglycerol, 15 min pre-incubation, 30 min incubation at RT, RapidFire MS readout.
T1 sequence (Q99685 1-303): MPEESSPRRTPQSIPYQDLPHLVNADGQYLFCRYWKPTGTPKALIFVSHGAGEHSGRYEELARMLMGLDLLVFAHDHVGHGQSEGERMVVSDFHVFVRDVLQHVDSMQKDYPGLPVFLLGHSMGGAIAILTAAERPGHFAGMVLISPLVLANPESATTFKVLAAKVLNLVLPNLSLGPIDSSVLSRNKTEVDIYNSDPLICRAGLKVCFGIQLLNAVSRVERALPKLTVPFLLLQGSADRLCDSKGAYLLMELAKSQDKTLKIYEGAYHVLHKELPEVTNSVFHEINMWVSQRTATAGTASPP
Type: biochemical
Method in brief: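 Human MAGL ([…] final) pre-incubated 15 min at RT with compound in 50 mM TRIS, 1 mM EDTA, 0.01% Tween-20, 2.5% DMSO; 8 μM 2-AG then added for 30 min at RT. Acetonitrile quench with d8-arachidonic acid; arachidonic acid measured by RapidFire SPE–MS/MS, activity from arachidonic acid/d8 ratio.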
In the case of `O=C(N1CC(OCc2cccc(S(=O)(=O)C(F)(F)F)c2)C1)N1CC2(CC(n3cnc(C4CC4)n3)C2)C1` [Example 498, [6-(3-cyclopropyl-1,2,4-triazol-1-yl)-2-azaspiro[3.3]heptan-2-yl]-[3-[[3-(trifluoromethylsulfonyl)phenyl]methoxy]azetidin-1-yl]methanone], the IC50 is reported as 1.69 nM. In the case of `O=C(N1CC(c2ccc(N3CCC(O)(C(F)(F)F)C3)nc2)C1)N1CC2(CC(n3cnc(C4CC4)n3)C2)C1` (centres unmarked) [Example 212, [6-(3-cyclopropyl-1,2,4-triazol-1-yl)-2-azaspiro[3.3]heptan-2-yl]-[3-[6-[3-hydroxy-3-(trifluoromethyl)pyrrolidin-1-yl]-3-pyridyl]azetidin-1-yl]methanone], the IC50 is reported as 1.5 nM. With `O=C(N1CC(OCc2ccc(F)cc2F)C1)N1CC2(CC(n3cnc(C4CC4)c3)C2)C1` [Example 110, [6-(4-cyclopropylimidazol-1-yl)-2-azaspiro[3.3]heptan-2-yl]-[3-[(2,4-difluorophenyl)methoxy]azetidin-1-yl]methanone] the IC50 was 65.8 nM. Molecule `O=C(N1CC(OCc2ccc(S(=O)(=O)C(F)(F)F)cc2F)C1)N1CC2(CC(n3cnc(C4(O)CC4)n3)C2)C1` [Example 398, [3-[[2-fluoro-4-(trifluoromethylsulfonyl)phenyl]methoxy]azetidin-1-yl]-[6-[3-(1-hydroxycyclopropyl)-1,2,4-triazol-1-yl]-2-azaspiro[3.3]heptan-2-yl]methanone] has an IC50 of 34.8 nM. Molecule `CS(=O)(=O)c1cccc(CC2CC3(C2)CN(C(=O)N2CC4(CC(n5cnc(C6CC6)n5)C4)C2)C3)c1` [Example 192, [6-(3-cyclopropyl-1,2,4-triazol-1-yl)-2-azaspiro[3.3]heptan-2-yl]-[6-(3-mesylbenzyl)-2-azaspiro[3.3]heptan-2-yl]methanone] has an IC50 of 0.2 nM. With `O=C(N1CC2(CC(n3cnc(C4CC4)n3)C2)C1)N1CC2(C1)CN(S(=O)(=O)CC1CC1)C2` [Example 296, [2-(cyclopropylmethylsulfonyl)-2,6-diazaspiro[3.3]heptan-6-yl]-[6-(3-cyclopropyl-1,2,4-triazol-1-yl)-2-azaspiro[3.3]heptan-2-yl]methanone] the IC50 was 91.5 nM. Molecule `O=C(N1CC(c2ccc(N3CC(O)(C(F)(F)F)C3)nc2)C1)N1CC2(CC(n3cnc(C4CC4)n3)C2)C1` [Example 206, [6-(3-cyclopropyl-1,2,4-triazol-1-yl)-2-azaspiro[3.3]heptan-2-yl]-[3-[6-[3-hydroxy-3-(trifluoromethyl)azetidin-1-yl]-3-pyridyl]azetidin-1-yl]methanone] has an IC50 of 0.9 nM. Work on `O=C(N1CC(Oc2nccc(C3CC3)c2F)C1)N1CC2(CC(n3cnc(C4CC4)n3)C2)C1` [Example 204, [3-[(4-cyclopropyl-3-fluoro-2-pyridyl)oxy]azetidin-1-yl]-[6-(3-cyclopropyl-1,2,4-triazol-1-yl)-2-azaspiro[3.3]heptan-2-yl]methanone] yielded an IC50 of 0.8 nM. Work on `O=C(N1CC(Oc2cccc(C3CC3)c2Cl)C1)N1CC2(CC(n3cnc(C4CC4)n3)C2)C1` [Example 94, (3-(2-chloro-3-cyclopropylphenoxy)azetidin-1-yl)(6-(3-cyclopropyl-1H-1,2,4-triazol-1-yl)-2-azaspiro[3.3]heptan-2-yl)methanone] yielded an IC50 of 0.2 nM. Work on `O=C(N1CC2(CC(n3cnc(C4CC4)n3)C2)C1)N1CC2(C1)CN(S(=O)(=O)NCC1(C(F)(F)F)CC1)C2` [Example 247, 6-[6-(3-cyclopropyl-1,2,4-triazol-1-yl)-2-azaspiro[3.3]heptane-2-carbonyl]-N-[[1-(trifluoromethyl)cyclopropyl]methyl]-2,6-diazaspiro[3.3]heptane-2-sulfonamide] yielded an IC50 of 12.2 nM. Work on `O=C(N1CC2(CCC(Cc3ccc(Cl)cn3)CC2)C1)N1CC2(CC(c3ccc(C(F)(F)F)nc3)C2)C1` [Example 517, [7-[(5-chloro-2-pyridyl)methyl]-2-azaspiro[3.5]nonan-2-yl]-[6-[6-(trifluoromethyl)-3-pyridyl]-2-azaspiro[3.3]heptan-2-yl]methanone] yielded an IC50 of 299 nM. Work on `O=C(N1CC(OCc2ccc(C(F)(F)F)cc2)C1)N1CC2(CC(n3cnc(C4CC4)n3)C2)C1` [Example 72, (6-(3-cyclopropyl-1H-1,2,4-triazol-1-yl)-2-azaspiro[3.3]heptan-2-yl)(3-((4-(trifluoromethyl)benzyl)oxy)azetidin-1-yl)methanone] yielded an IC50 of 3.9 nM. Work on `O=C(N1CC(c2ccc(N3CCC(C(F)(F)F)C3)nc2)C1)N1CC2(CC(n3cnc(C4CC4)n3)C2)C1` (stereo in doubt) [Example 480, [6-(3-cyclopropyl-1,2,4-triazol-1-yl)-2-azaspiro[3.3]heptan-2-yl]-[3-[6-[(3S)-3-(trifluoromethyl)pyrrolidin-1-yl]-3-pyridyl]azetidin-1-yl]methanone] yielded an IC50 of 0.49 nM. `O=C(N1CC(c2ccc(OC(F)(F)F)cc2Cl)C1)N1CC2(CC(n3cnc(C4CC4)n3)C2)C1` [Example 84, [3-[2-chloro-4-(trifluoromethoxy)phenyl]azetidin-1-yl]−[6-(3-cyclopropyl-1,2,4-triazol-1-yl)-2-azaspiro[3.3]heptan-2-yl]methanone] was tested, and the IC50 was 0.6 nM. In the case of `O=C(N1CC(c2ccc(OC(F)(F)F)c(F)c2)C1)N1CC2(CC(n3cnc(C4CC4)n3)C2)C1` [Example 36, [6-(3-cyclopropyl-1,2,4-triazol-1-yl)-2-azaspiro[3.3]heptan-2-yl]-[3-[3-fluoro-4-(trifluoromethoxy)phenyl]azetidin-1-yl]methanone], the IC50 is reported as 0.4 nM. `CC(C)(C)c1nc(-c2ccc(C(=O)N3CC4(CC(n5cnc(C6CCC6)n5)C4)C3)cc2)no1` [Example 90, [4-(5-tert-butyl-1,2,4-oxadiazol-3-yl)phenyl]−[6-(3-cyclobutyl-1,2,4-triazol-1-yl)-2-azaspiro[3.3]heptan-2-yl]methanone] gave an IC50 of 4 nM. `O=C(N1CC2(CC(n3cnc(C4CC4)n3)C2)C1)N1CC2(CN(Cc3ccc(F)cc3F)C2)C1` [Example 234, [6-(3-cyclopropyl-1,2,4-triazol-1-yl)-2-azaspiro[3.3]heptan-2-yl]-[6-[(2,4-difluorophenyl)methyl]-2,6-diazaspiro[3.3]heptan-2-yl]methanone] showed an IC50 of 5.4 nM. Work on `O=C(N1CC2(CC(Oc3ccc(C(F)(F)F)nc3)C2)C1)N1CC2(CC(n3cnc(C4CC4)n3)C2)C1` [Example 80, (6-(3-cyclopropyl-1H-1,2,4-triazol-1-yl)-2-azaspiro[3.3]heptan-2-yl)(6-((6-(trifluoromethyl)pyridin-3-yl)oxy)-2-azaspiro[3.3]heptan-2-yl)methanone] yielded an IC50 of 2.2 nM. `O=C(N1CC2(CC(n3cnc(C4CC4)n3)C2)C1)N1CC2(C1)CN(S(=O)(=O)c1cccnc1C(F)(F)F)C2` [Example 297, [6-(3-cyclopropyl-1,2,4-triazol-1-yl)-2-azaspiro[3.3]heptan-2-yl]-[2-[[2-(trifluoromethyl)-3-pyridyl]sulfonyl]-2,6-diazaspiro[3.3]heptan-6-yl]methanone] was tested, and the IC50 was 94.4 nM. For `Cn1ccc(OC2CC3(C2)CN(C(=O)N2CC4(CC(n5cnc(C6CC6)n5)C4)C2)C3)cc1=O` [Example 66, 4-[[2-[6-(3-cyclopropyl-1,2,4-triazol-1-yl)-2-azaspiro[3.3]heptane-2-carbonyl]-2-azaspiro[3.3]heptan-6-yl]oxy]-1-methyl-pyridin-2-one], the IC50 was 159 nM. Molecule `O=C(N1CC2(CCC(Cc3ncc(F)cc3F)C2)C1)N1CC2(CC(n3cnc(C4(O)CC4)n3)C2)C1` (centres unmarked) [Example 388, [6-[(3,5-difluoro-2-pyridyl)methyl]-2-azaspiro[3.4]octan-2-yl]-[6-[3-(1-hydroxycyclopropyl)-1,2,4-triazol-1-yl]-2-azaspiro[3.3]heptan-2-yl]methanone] has an IC50 of 8.72 nM. In the case of `CS(=O)(=O)c1cccc(CC2CC3(C2)CN(C(=O)N2CC4(CC(c5ccc(C(F)(F)F)nc5)C4)C2)C3)c1` [Example 529, [6-[(3-methylsulfonylphenyl)methyl]-2-azaspiro[3.3]heptan-2-yl]-[6-[6-(trifluoromethyl)-3-pyridyl]-2-azaspiro[3.3]heptan-2-yl]methanone], the IC50 is reported as 189 nM. With `O=C(N1CC2(CC(n3cnc(C4CC4)n3)C2)C1)N1CCC(OCC2(C(F)(F)F)CC2)C2(CC2)C1` (centres unmarked) [Example 149, [6-(3-cyclopropyl-1,2,4-triazol-1-yl)-2-azaspiro13.31heptan-2-yl]−[8-[[1-(trifluoromethyl)cyclopropyl]methoxy]-5-azaspiro[2.5]octan-5-yl]methanone] the IC50 was 441 nM. In the case of `O=C(N1CC2(CC(Cc3ccc(F)cc3F)C2)C1)N1CC2(CC(c3cncc(F)c3)C2)C1` [Example 380, [6-[(2,4-difluorophenyl)methyl]-2-azaspiro[3.3]heptan-2-yl]-[6-(5-fluoro-3-pyridyl)-2-azaspiro[3.3]heptan-2-yl]methanone], the IC50 is reported as 0.57 nM. `O=C(c1cnc(OCC2(C(F)(F)F)CC2)c(C(F)(F)F)c1)N1CC2(CC(n3cnc(C4CC4)n3)C2)C1` [Example 153, [6-(3-cyclopropyl-1,2,4-triazol-1-yl)-2-azaspiro[3.3]heptan-2-yl]−[5-(trifluoromethyl)-6-[[1-(trifluoromethyl)cyclopropyl]methoxy]-3-pyridyl]methanone] was tested, and the IC50 was 14.9 nM. For `O=C(N1CC2(CC(n3cnc(C4CC4)n3)C2)C1)N1CC2(C1)CN(S(=O)(=O)NC1(C(F)(F)F)CC1)C2` [Example 260, 6-[6-(3-cyclopropyl-1,2,4-triazol-1-yl)-2-azaspiro[3.3]heptane-2-carbonyl]-N-[1-(trifluoromethyl)cyclopropyl]-2,6-diazaspiro[3.3]heptane-2-sulfonamide], the IC50 was 23.1 nM.
